From ChEMBL document CHEMBL5356949, “Development of novel thiazolidine-2,4-dione derivatives as PPAR-γ agonists through design, synthesis, computational docking, MD simulation, and comprehensive in vitro and in vivo evaluation” (RSC Med Chem, 2023)
Calls of active or inactive are those of the source. The calls are words filed in the database; no cut-off is given here.

How the values were obtained:
Rattus norvegicus [1] = test: Hypolipidemic activity against dexamethasone-induced sc dosed Wistar rat model assessed as decrease in serum triglyceride level administered once daily for 11 days and fasted for 12 hrs at end of the experimental period; assay type: functional, organism-based; settings: time 11.5 day
Rattus norvegicus [2] = test: Hypolipidemic activity against dexamethasone-induced sc dosed Wistar rat model assessed as decrease in serum LDL-c level administered once daily for 11 days and fasted for 12 hrs at end of the experimental period; assay type: functional, organism-based; settings: time 11.0 day
Rattus norvegicus [3] = test: Effect on serum AST level in dexamethasone-induced sc dosed Wistar rat model administered once daily for 11 days and fasted for 12 hrs at end of the experimental period by biochemical analysis; assay type: functional, organism-based; settings: time 11.5 day
C2C12 [4] = test: Cytotoxicity against mouse C2C12 cells assessed as reduction in cell viability at 100 to 200 uM incubated for 24 hrs by MTT assay; assay type: toxicity, cell-based; settings: c2c12, 24 h, dose 100-200 µM
Rattus norvegicus [5] = test: Hypolipidemic activity against dexamethasone-induced sc dosed Wistar rat model assessed as decrease in serum HDL-c level administered once daily for 11 days and fasted for 12 hrs at end of the experimental period; assay type: functional, organism-based; settings: time 11.5 day
Rattus norvegicus [6] = test: Antidiabetic activity against dexamethasone-induced sc dosed Wistar rat model assessed as decrease in serum glucose level administered once daily for 11 days and fasted for 12 hrs at end of the experimental period; assay type: functional, organism-based; settings: time 11.5 day
C2C12 [7] = test: Antidiabetic activity in mouse C2C12 cells assessed as increase in glucose uptake incubated for 30 mins; assay type: functional, cell-based
Rattus norvegicus [8] = test: Antidiabetic activity against dexamethasone-induced sc dosed Wistar rat model assessed as decrease in serum VLDL level administered once daily for 11 days and fasted for 12 hrs at end of the experimental period; assay type: functional, organism-based; settings: time 11.5 day
Rattus norvegicus [9] = test: Effect on serum ALT level in dexamethasone-induced sc dosed Wistar rat model administered once daily for 11 days and fasted for 12 hrs at end of the experimental period by biochemical analysis; assay type: functional, organism-based; settings: time 11.5 day
Rattus norvegicus [10] = test: Hypolipidemic activity against dexamethasone-induced sc dosed Wistar rat model assessed as decrease in serum TG level administered once daily for 11 days and fasted for 12 hrs at end of the experimental period; assay type: functional, organism-based; settings: time 11.5 day
Rattus norvegicus [11] = test: (§1) Antidiabetic activity against dexamethasone-induced sc dosed Wistar rat diabetic model assessed as restoration of histopathological changes administered once daily for 11 days and fasted for 12 hrs at end of the experimental period by hematoxylin and eosin staining based microscopic analysis; assay type: functional, organism-based; settings: time 11.5 day
C2C12 [12] = test: Upregulation of PPAR-gamma expression in mouse C2C12 cells at 1 uM by ELISA analysis; assay type: functional, cell-based
Rattus norvegicus [13] = test: Effect on serum ALT level in dexamethasone-induced Wistar rat model at 17.5 mg/kg, sc administered once daily for 11 days and fasted for 12 hrs at end of the experimental period by biochemical analysis; assay type: functional, organism-based; settings: time 11.5 day
Rattus norvegicus [14] = test: Hypolipidemic activity against dexamethasone-induced Wistar rat model assessed as decrease in serum TG level at 17.5 mg/kg, sc administered once daily for 11 days and fasted for 12 hrs at end of the experimental period; assay type: functional, organism-based; settings: time 11.5 day
Rattus norvegicus [15] = test: Antidiabetic activity against dexamethasone-induced Wistar rat model assessed as decrease in serum glucose level at 17.5 mg/kg, sc administered once daily for 11 days and fasted for 12 hrs at end of the experimental period; assay type: functional, organism-based; settings: time 11.5 day
Rattus norvegicus [16] = test: Hypolipidemic activity against dexamethasone-induced Wistar rat model assessed as decrease in serum triglyceride level at 17.5 mg/kg, sc administered once daily for 11 days and fasted for 12 hrs at end of the experimental period; assay type: functional, organism-based; settings: time 11.5 day
Rattus norvegicus [17] = test: Hypolipidemic activity against dexamethasone-induced Wistar rat model assessed as decrease in serum LDL-c level at 17.5 mg/kg, sc administered once daily for 11 days and fasted for 12 hrs at end of the experimental period; assay type: functional, organism-based; settings: time 11.5 day
Rattus norvegicus [18] = test: Effect on serum AST level in dexamethasone-induced Wistar rat model at 17.5 mg/kg, sc administered once daily for 11 days and fasted for 12 hrs at end of the experimental period by biochemical analysis; assay type: functional, organism-based; settings: time 11.5 day
Rattus norvegicus [19] = test: Antidiabetic activity against dexamethasone-induced Wistar rat model assessed as decrease in serum VLDL level at 17.5 mg/kg, sc administered once daily for 11 days and fasted for 12 hrs at end of the experimental period; assay type: functional, organism-based; settings: time 11.5 day
Rattus norvegicus [20] = test: Hypolipidemic activity against dexamethasone-induced Wistar rat model assessed as decrease in serum HDL-c level at 17.5 mg/kg, sc administered once daily for 11 days and fasted for 12 hrs at end of the experimental period; assay type: functional, organism-based; settings: time 11.5 day
C2C12 [21] = test: Upregulation of PPAR-gamma expression in mouse C2C12 cells by ELISA analysis; assay type: functional, cell-based; settings: dose 6.25-100 µM
Rattus norvegicus [22] = test: as §1, with “dexamethasone-induced” for “dexamethasone-induced sc dosed”, “changes at 17.5 mg/kg, sc” for “changes”; assay type: functional, organism-based; settings: time 11.5 day

Cc1c(Cl)cccc1NC(=O)CN1C(=O)S/C(=C\c2cccs2)C1=O
Activity (Rattus norvegicus [1]): Active | Activity (Rattus norvegicus [2]): Active | Activity (Rattus norvegicus [3]): Active | Activity (C2C12 [4]): Non-Toxic | Activity (Rattus norvegicus [5]): Active | Activity (Rattus norvegicus [6]): Active | Activity (C2C12 [7]): Active | Activity (Rattus norvegicus [8]): Active | Activity (Rattus norvegicus [9]): Active | Activity (Rattus norvegicus [10]): Active | Activity (Rattus norvegicus [11]): Active

CCc1ccc(CCOc2ccc(CC3SC(=O)NC3=O)cc2)nc1 (stereo unspecified)
Activity (C2C12 [12]): Active

O=C(CN1C(=O)S/C(=C\c2cccs2)C1=O)Nc1cc(Cl)c(Cl)cc1Cl
Activity (Rattus norvegicus [13]): Active | Activity (C2C12 [4]): Non-Toxic | Activity (Rattus norvegicus [14]): Active | Activity (Rattus norvegicus [15]): Active | Activity (Rattus norvegicus [16]): Active | Activity (Rattus norvegicus [17]): Active | Activity (Rattus norvegicus [18]): Active | Activity (C2C12 [7]): Active | Activity (Rattus norvegicus [19]): Active | Activity (Rattus norvegicus [20]): Active | Activity (C2C12 [21]): Dose-Dependent Effect | Activity (Rattus norvegicus [22]): Active

O=C(CN1C(=O)S/C(=C\c2cccs2)C1=O)Nc1cccc(C(F)(F)F)c1
Activity (Rattus norvegicus [13]): Active | Activity (C2C12 [4]): Non-Toxic | Activity (Rattus norvegicus [14]): Active | Activity (Rattus norvegicus [15]): Active | Activity (Rattus norvegicus [16]): Active | Activity (Rattus norvegicus [17]): Active | Activity (Rattus norvegicus [18]): Active | Activity (C2C12 [7]): Active | Activity (Rattus norvegicus [19]): Active | Activity (Rattus norvegicus [20]): Active | Activity (C2C12 [21]): Dose-Dependent Effect | Activity (Rattus norvegicus [22]): Active
